Test [1] has as its target T1, Mcl-1 protein (Homo sapiens, UniProt Q07820).
T1 construct: human Mcl-1 (residues 171–323); His tag (pHis-TEV vector) (N, cleaved yes); made in house; host or cells: E. coli BL21 (DE3)
The test is described as follows: SPR-based solution competitive binding assay, immobilized biotin-labelled Bim BH3 peptide. As to conditions: Mcl-1 20 nM; competition with immobilized Bim BH3 peptide. As for the experimental part: The solution competitive SPR-based assay was performed on Biacore 2000 in a similar way as was already reported. Briefly, N terminal biotin-labelled Bim BH3 peptide (141–166 amino acids) was immobilized on streptavidin (SA) chip giving a density of 800 RU (Response Units). The pre-incubated Mcl-1 protein (20 nM) with tested small-molecule inhibitors for at least 30 min was injected over the surfaces of the chip using assay buffer HBS-P (GE, #BR100368). Response units were measured at 15 s in the dissociation phase, and IC50 values were determined by nonlinear least-squares analysis using GraphPad Prism 6.0 software.

Test [2] concerns the target T1, Mcl-1 protein. The test is described as follows: FP-based competitive binding assay with fluorescent labelled Bid BH3 peptide. The settings on record: for Ki: calculated from FP IC50; for IC50: competition with fluorescent Bid probe 2 nM, 20 nM Mcl-1 for purchased compounds, 10 nM for synthesized library. The method, then:
(§1) FP-based binding assays were developed and optimized to determine the binding affinities of inhibitors to the recombinant Mcl-1, Bcl-2, Bcl-xL, and Bfl-1, proteins. […] The fluorescent Bid probe was fixed at 2 nM for all assays, except for Bfl-1, where 1 nM was used. 5 μL of the tested compound in DMSO and 120 μL of protein/probe complex in the assay buffer were added to assay plates (Corning #3792), incubated at room temperature for 3 h, and the polarization values (mP) were measured at an excitation wavelength of 485 nm and an emission wavelength of 530 nm using the plate reader Synergy H1 Hybrid, BioTek. IC50 values were determined by nonlinear regression fitting of the competition curves (GraphPad Prism 6.0 Software). The Ki values were calculated as described previously.
(§2) 1. List of compounds purchased from vendors
(§3) Compound s 5, 6, 7, 8 and S3, S4, S5, S6 S7, S8, S9, S10, S17 were purchased from […]
(§4) Compound s 9, 10, 11 and S11, S12, S13 were purchased from I nterbioscreen […]
His-tagged proteins containing human Mcl-1 (residues 171–323), the isoform 2 construct of the human Bcl-2 [Bcl2-2 construct for protein production starts with the Bcl2 sequence of 1-34 a a, followed by the Bcl-xL seq uence of 35-50 aa, and ends with the Bcl-2 sequenc e of 92-202aa.], Bcl-xL (Human Bcl-xL protein, which has an internal deletion for the 45 -85 amino acid residues and a C -terminal truncation for the amino acid residues 212-233), and Bf l-1 (residues 1-151), were expres sed from the pHis -TEV vector (a modified pET vector) in E. coli BL21 (DE3) cells. Cells were grown at 37 °C in 2×YT containing antibiotics to an OD600 density of 1.5, 1 and 0.8 for Mcl-1, Bcl-xL and Bcl-2 respectively. Protein expression wa s induced by 0 .4 mM IPTG at 20 °C overnight for all proteins except for Bf l-1 which was e xpressed at 3 7 °C for four hours . Cells were lysed in 20 mM HEPES pH 7.5, 200 mM NaCl, 0.1% βME with Leupeptin/Aprotinin (Mcl-1), 25mM Tris pH 8.5, 200mM NaCl (Bcl-2), 50mM Tris pH 7.5, 200 mM NaCl (Bcl-xL) and 50 mM Tris pH 8, 500 mM NaCl, 0. 1% βME with Leupeptin/Aprotinin (Bf l-1). All […]
proteins were purified from the soluble fraction using Ni-NTA resin (QIAGEN), following the manufacturer’s instructions. For purification of TEV-cleaved protein, the amino-terminal His tag was cleaved by incubation with TEV protease and the protein was further purified by anion exchange (Source Q) and gel filtration chromatography (Superdex 75, Amersham Biosciences) in 20mM HEPES pH 7.0, 50 mM NaCl (Mcl-1), […]
NaCl, 0.1% βME (Bcl-xL) and 25 mM Tris pH 7.5, 150 mM NaCl, 25% Glycerol, 0.1% βME ( Bf l-1). His-tagged Mcl-1 protein was used for TR-FRET assay and HSQC-NMR.
His-TEV cleaved Mcl-1, Bcl-2, Bcl-xL, and Bf l-1 were used in fluorescent polarization and surface plasmon resonance binding assays.
Mutant Mcl-1 protein wa s prepared by the QuikChange site -directed mutagenesi s method (Stratagene) , where Arg263 was mutated to Ala. The R263A expression pla smid was transformed into Rosetta2 DE3 cells and purified by the same method as the wildtype protein. Cultures were grown to an OD 600 of 1. 5 at 37 °C in Terrific Broth, induced with 0. 4 mM IPTG, and express ed overnight at 20 °C. The follow-up purification was performed the same way as was for Mcl-1 wild-type recombinant

Test [3] concerns the target T1, Mcl-1 protein. The test is described as follows: TR-FRET binding assay with Bid-Dy647 peptide. As to conditions: 10 nM Mcl-1, 10 nM Bid-Dy647. The method, then: TR-FRET was performed using black 384-well plates in an Envision Multilabel plate reader (Perkin Elmer Life Sciences). To each well, a mixture of 10 nM Bid-Dy647 peptide (79–99), 10 nM Mcl-1 protein, and Europium-anti-His antibody were added to a final volume of 25 μl in the assay buffer (20 mM potassium phosphate, pH 7.5; 50 mM NaCl, 1 mM EDTA and 0.05% Pluronic F68). The TR-FRET signals were measured with an Envision Multilabel plate reader after 2 h of incubation. (Ex 340 nm, Em615 nm and Em665 nm) and expressed as FRET signal ratio (F665 nm/[…] * 104)
(TR-FRET usually uses a lanthanide donor and a delayed reading to cut background.)

The target in test [4] is T2, Bfl-1 (Homo sapiens, UniProt Q16548).
T2 construct: Bf l-1 (residues 1-151); His tag (pHis-TEV vector) (N, cleaved yes); made in house; host or cells: E. coli BL21 (DE3)
T2 sequence (Q16548 1-151): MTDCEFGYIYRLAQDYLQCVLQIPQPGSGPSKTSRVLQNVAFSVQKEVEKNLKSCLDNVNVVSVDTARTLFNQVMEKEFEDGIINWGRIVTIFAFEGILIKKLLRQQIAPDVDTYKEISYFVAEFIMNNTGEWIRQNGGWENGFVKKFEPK
The test is described as follows: FP-based competitive binding assay with FAM-Bid. The method, then: as §1, §2, §3, §4
(§5) His-tagged proteins containing human Mcl-1 (residues 171–323), the isoform 2 construct of the human Bcl-2 [Bcl2-2 construct for protein production starts with the Bcl2 sequence of 1-34 a a, followed by the Bcl-xL seq uence of 35-50 aa, and ends with the Bcl-2 sequenc e of 92-202aa.], Bcl-xL (Human Bcl-xL protein, which has an internal deletion for the 45 -85 amino acid residues and a C -terminal truncation for the amino acid residues 212-233), and Bf l-1 (residues 1-151), were expres sed from the pHis -TEV vector (a modified pET vector) in E. coli BL21 (DE3) cells. Cells were grown at 37 °C in 2×YT containing antibiotics to an OD600 density of 1.5, 1 and 0.8 for Mcl-1, Bcl-xL and Bcl-2 respectively. Protein expression wa s induced by 0 .4 mM IPTG at 20 °C overnight for all proteins except for Bf l-1 which was e xpressed at 3 7 °C for four hours . Cells were lysed in 20 mM HEPES pH 7.5, 200 mM NaCl, 0.1% βME with Leupeptin/Aprotinin (Mcl-1), 25mM Tris pH 8.5, 200mM NaCl (Bcl-2), 50mM Tris pH 7.5, 200 mM NaCl (Bcl-xL) and 50 mM Tris pH 8, 500 mM NaCl, 0. 1% βME with Leupeptin/Aprotinin (Bf l-1). All

Test [5] concerns the target T3, Bcl-2 (Homo sapiens, UniProt P10415, DEL35-91/INS34DVEENRTEAPEGTESE).
T3 construct: His tag (pHis-TEV vector) (N, cleaved yes); made in house; host or cells: E. coli BL21 (DE3)
The test is described as follows: FP-based competitive binding assay with FAM-Bid. As to conditions: FP. The method, then: as §1, §2, §3, §4, §5

In test [6] the target is T4, Bcl-xL (Homo sapiens, UniProt Q07817, DEL45-85).
T4 construct: His tag (pHis-TEV vector) (N, cleaved yes); made in house; host or cells: E. coli BL21 (DE3)
T4 sequence (Q07817 with tags, fused parts or gaps DEL45-85 limits assumed): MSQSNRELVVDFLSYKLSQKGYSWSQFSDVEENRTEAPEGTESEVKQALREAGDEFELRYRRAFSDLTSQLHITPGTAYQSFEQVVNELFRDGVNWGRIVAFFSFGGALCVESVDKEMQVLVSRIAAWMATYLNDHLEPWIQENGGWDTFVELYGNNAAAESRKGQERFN
The test is described as follows: FP-based competitive binding assay with FAM-Bid. The settings on record: FP. The method, then: as §1, §2, §3, §4, §5

As a reminder, the IC50 is the concentration needed to halve the response being measured. In general, Ki refers to a dissociation constant, usually derived from enzyme kinetics or from competition with a known ligand.

Several values for one entry are separate records, joined by “and”; a condition that tells them apart may be missing. Equal values may be shown once. Bounds are passed on as bounds.

T1 sequence (Q07820 171-323): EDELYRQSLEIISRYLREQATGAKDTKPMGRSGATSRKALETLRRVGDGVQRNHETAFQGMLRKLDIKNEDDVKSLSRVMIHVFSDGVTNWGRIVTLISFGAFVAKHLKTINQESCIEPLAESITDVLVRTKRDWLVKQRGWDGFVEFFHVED
T3 sequence (P10415 with tags, fused parts or gaps INS34DVEEN/V35R/G36T/A37E/P40E/DEL42-87/P88T/V89E/P90S/P91E): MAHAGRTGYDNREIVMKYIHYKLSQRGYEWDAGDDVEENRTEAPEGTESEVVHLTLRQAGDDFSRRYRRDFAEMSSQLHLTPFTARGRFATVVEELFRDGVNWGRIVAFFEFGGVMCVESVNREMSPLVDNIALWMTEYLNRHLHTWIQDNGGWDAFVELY

As to `O=C(CSc1nnc(-c2ccco2)c(-c2ccco2)n1)Nc1ccccc1-c1ccccc1` [Compound 41], the IC50 in test [1] stood at 1.9 ± 0.7 µM; in test [2], 4.4 ± 0.5 µM; in test [3], 12.7 ± 4.5 µM. Further, in test [2], the Ki was 1000 ± 100 nM.
On to `O=C(Nc1ccccc1)c1ccc2nc(-c3ccco3)c(-c3ccco3)nc2c1` [Compound 45], for which, in test [2], the Ki is above 12500 nM and the IC50 was above 50 µM.
Regarding `Cc1ccc(NC(=O)c2ccc3nc(-c4ccco4)c(-c4ccco4)nc3c2)cc1` [Compound 46], in test [2], the Ki is 15800 ± 2300 nM and the IC50 came out at 67.1 ± 9.1 µM.
Take `c1ccc(CCCSc2nnc(-c3ccco3)c(-c3ccco3)n2)cc1` [Compound 42]: the Ki in test [2] is 400 ± 100 nM; in test [4] (FP), 1600 ± 100 nM; in test [5] it was above 25 µM; in test [6], above 20 µM. For the same compound, the IC50 in test [2] was 1.5 ± 0.3 µM; in test [4] (Bfl-1) it was 11.4 ± 0.1 µM; in test [5], above 100 µM; in test [6], above 100 µM; in test [3], 2.4 ± 0.1 µM.
As to `CCc1cccc(NC(=O)CSc2nnc(-c3ccco3)c(-c3ccco3)n2)c1` [Compound 37], in test [2], the Ki is 1200 ± 100 nM and the IC50 amounted to 5.3 ± 0.5 µM.
Regarding `c1ccc(CCSc2nnc(-c3ccco3)c(-c3ccco3)n2)cc1` [Compound 43], in test [2], the inhibitory constant (Ki) is 500 ± 100 nM and the IC50 was found to be 2.2 ± 0.2 µM. The same compound yielded an IC50 in test [3] of 5.2 ± 0.1 µM.
`O=C(CSc1nnc(-c2ccco2)c(-c2ccco2)n1)Nc1ccc(Oc2ccccc2)cc1` [Compound 31]: in test [2], the Ki was 1600 ± 400 nM. Besides, the figures for the IC50 in test [2] and in test [3] were 6.9 ± 1.9 µM and 9 ± 3.8 µM, respectively.
On to `O=C(CSc1nnc(-c2ccccn2)c(-c2ccccn2)n1)Nc1ccccc1` [Compound 27], for which the IC50 in test [1] was above 100 µM. Also, in test [2], the Ki is above 12500 nM and the IC50 is above 50 µM.
As to `O=C(CSc1nnc(-c2ccco2)c(-c2ccco2)n1)Nc1ccc(-c2ccccc2)cc1` [Compound 35], the figures for the IC50 in test [1], in test [2] and in test [3] were 5.1 ± 2.3 µM, 2.5 ± 0.1 µM and 5 ± 2.7 µM, respectively. Also, in test [2], the Ki was 600 ± 100 nM.
As to `COc1ccc(NC(=O)CSc2nnc(-c3ccco3)c(-c3ccco3)n2)cc1` [Compound 30], the IC50 in test [1] is 47.4 ± 3.9 µM. In test [2], the inhibition constant (Ki) is 7800 ± 1800 nM; the IC50 was 33 µM and 33.1 µM.
For `Nc1ccc(NC(=O)CSc2nnc(-c3ccco3)c(-c3ccco3)n2)cc1` [Compound 33], the IC50 in test [1] is above 100 µM. In addition, in test [2], the Ki was above 25000 nM and the IC50 is above 100 µM.
For the compound `CN(C)c1ccc(NC(=O)CSc2nnc(-c3ccco3)c(-c3ccco3)n2)cc1` [Compound 32], the half-maximal inhibitory concentration (IC50) in test [1] was above 100 µM; in test [2], above 100 µM; in test [3], above 80 µM. For the same compound, the Ki in test [2] is above 25000 nM.
For `O=C(CSc1nnc(-c2ccccc2)c(-c2ccccc2)n1)Nc1ccccc1` [Compound 26], in test [1], the IC50 is above 100 µM. Also, in test [2], the Ki was above 5000 nM and the IC50 is above 20 µM.
Consider `O=C(CSc1nnc(-c2ccco2)c(-c2ccco2)n1)Nc1ccc(Cc2ccccc2)cc1` [Compound 36], for which the results for the IC50 in test [1], in test [2] and in test [3] were 4.2 ± 0.4 µM, 2.5 ± 0.6 µM and 5.1 ± 1.5 µM, respectively. The Ki in test [2] was 600 ± 100 nM.
Consider `O=C(CSc1nnc(-c2ccco2)c(-c2ccco2)n1)Nc1cccc(-c2ccccc2)c1` [Compound 40], for which the figures for the IC50 in test [1], in test [2] and in test [3] were 7.3 ± 2.1 µM, 4.1 ± 1.5 µM and 7.9 ± 4.7 µM, respectively. Also, the Ki in test [2] was 1000 ± 400 nM.
Take `CCc1ccc(NC(=O)CSc2nnc(-c3ccco3)c(-c3ccco3)n2)cc1` [Compound 28]: the IC50 was 14.3 ± 2 µM in test [1], 5 ± 0.3 µM in test [2] and 5.5 ± 1.8 µM in test [3]. Further, the Ki in test [2] was 1200 ± 100 nM.
Turning to `O=C(CSc1nnc(-c2ccco2)c(-c2ccco2)n1)Nc1ccc(F)cc1` [Compound 34], the results for the IC50 in test [1], in test [2] and in test [3] were 12.5 ± 1.7 µM, 8.1 ± 0.8 µM and 11.6 ± 4 µM, respectively. In test [2], the Ki is 1900 ± 200 nM.
As for `O=C(CSc1nnc(-c2cccs2)c(-c2cccs2)n1)Nc1ccccc1` [Compound 25], the IC50 in test [1], in test [2] and in test [3] was above 100 µM throughout. For the same compound, the Ki in test [2] was above 25000 nM.

The values are drawn from PMC6033896, “Discovery of Mcl-1 inhibitors from integrated high throughput and virtual screening” (Scientific Reports, 2018).
